Assay results: patent US20210187106A1, “COMBINATION OF LIF INHIBITORS AND PLATINUM-BASED ANTINEOPLASTIC AGENTS FOR USE IN TREATING CANCER” (MEDIMMUNE LIMITED, priority 2018, published 2021)
Where “and” joins values, the source holds several entries; their conditions need not be identical. Identical values can stand only once. Entries after “also recorded” stand apart in the source; their conditions may differ.

How the values were obtained:
CT26 tumors [1] = assay: Subcutaneous implanted CT26 model, h5D8 combined with cisplatin, doxorubicin or paclitaxel; format: in vivo, mouse; conditions: individual BALB/c mice, h5D8 15 mg/kg twice a week, cisplatin 10 mg/kg once a week, paclitaxel 15 mg/kg twice a week, doxorubicin 4 mg/kg once a week
CT26 tumors [2] = assay: Subcutaneous colon CT26 syngeneic tumor model in mice; format: in vivo, mouse; conditions: FIG. 10E
Procedure: CT26 cells were cultured in Roswell Park Memorial Institute medium (RPMI [Gibco, Invitrogen]), supplemented with 10% Fetal Bovine Serum (FBS), 40 U/mL penicillin and 40 μg/mL streptomycin (PenStrep) and 0.25 μg/mL Plasmocin.
CT26 cells (8×10^5)were trypsinized, rinsed with PBS, centrifuged at 400 g for 5 minutes and resuspended in 100 μL PBS. Cells were kept on ice to avoid cell death. The CT26 cells were administered to mice via subcutaneous injection using a 27G needle.
300 μg r5D8, or vehicle control, was administered to the mice via intraperitoneal injection (IP) twice weekly from day 3 post CT26 cell implant.
Body weight and tumor volumes were measured three times per week. Tumor volume was measured using a caliper (Fisher Scientific).

[3] = tested on: CCL22 and CD206 (MRC1) expression in patient samples; assay: Human organotypic tissue slice culture model, M2 macrophage markers; format: cell-based; conditions: three patient samples, FIG. 10B
human U251 GBM cells = assay: Orthotopic GBM tumor model with luciferase expressing U251 cells in mice; format: in vivo; conditions: 200 μg or 300 μg twice a week, FIG. 7B
Procedure: Results of this study are shown in FIG. 7A (quantitation at day 26 post treatment). […] Tumor size was determined by bioluminescence (Xenogen IVIS Spectrum) on day 7. […] Statistical significance was calculated using the unpaired non-parametric Mann-Whitney U-test.
U251 cells stably expressing luciferase were harvested, washed in PBS, centrifuged at 400 g for 5 min, resuspended in PBS and counted with an automated cell counter (Countess, Invitrogen). Cells were kept on ice to maintain optimal viability. Mice were anaesthetized with intraperitoneal administration of Ketamine (Ketolar50®)/Xylacine (Rompún®) (75 mg/kg and 10 mg/kg respectively). Each mouse was carefully placed in the stereotactic device and immobilized. […]
Body weight and tumor volume: Body weight was measured 2 times/week and tumor growth was quantified by bioluminescence on day 7 (Xenogen IVIS Spectrum). To quantify bioluminescence activity in vivo, mice were anaesthetized using isofluorane, and injected intraperitoneally with luciferin substrate (PerkinElmer) ([…]).
Tumor size as determined by bioluminescence (Xenogen IVIS Spectrum) was evaluated at day 7. The individual tumor measurements and mean±SEM for each treatment group were calculated. Statistical significance was determined by the unpaired non-parametric Mann-Whitney U-test.

[4] = tested on: STAT3 phosphorylation (Tyr 705) in U251 glioma cells; assay: Inhibition of STAT3 phosphorylation in glioma cell culture model of LIF activation, western blot; format: cell-based, human; conditions: 10 μg/ml over night, FIG. 2A
Procedure: U251 glioma cells were plated in 6-well plates at a density of 150,000 cells/well. Cells were cultured in complete medium for 24 hours before any treatment.
After treatment, proteins were obtained in radio-immunoprecipitation assay (RIPA) lysis buffer containing phosphatase and protease inhibitors, quantified (BCA-protein assay, Thermo Fisher Scientific) and used in western blot. For western blot, membranes were blocked for 1 hour in 5% non-fatty milk—TBST and incubated with the primary antibody overnight (p-STAT3, catalog #9145, Cell Signaling or STAT3, catalog #9132, Cell Signaling) or 30 minutes (β-actin-peroxidase, catalog #A3854, Sigma-Aldrich). Membranes were then washed with TBST, incubated with secondary antibody if necessary, and washed again. Proteins were detected by chemiluminescence (SuperSignal Substrate, catalog #34076, Thermo Fisher Scientific).

ID8 cells = assay: Ovarian orthotopic syngeneic tumor model ID8 in mice; format: in vivo; conditions: 200 μg/mouse and above twice weekly, FIG. 8C
Procedure: The efficacy of r5D8 was evaluated in two other syngeneic tumor models.
ID8 cells were cultured in Dulbecco's Modified Eagle Medium (DMEM) (Gibco, Invitrogen), supplemented with 10% Fetal Bovine Serum (FBS) (Gibco, Invitrogen), 40 U/mL Penicillin and 40 μg/mL Streptomycin (PenStrep) (Gibco, Invitrogen) and 0.25 μg/mL Plasmocin (Invivogen).
The ID8 cells were harvested, washed in PBS, centrifuged at 400 g for 5 min and resuspended in PBS. Cells were kept on ice to maintain optimal viability and 200 μL of the cell suspension was injected intraperitoneally with a 27G needle. The final cell number implanted into mice was 5×10^6.
Mice were treated twice weekly with h5D8 administered ip at different doses as indicated. Body weights were measured 2 times/week and tumor progression was monitored by measuring abdominal girth using a caliper (Fisher Scientific).

[5] = tested on: LIF-induced STAT3 phosphorylation in U251 glioma cells; assay: Inhibition of LIF-induced STAT3 phosphorylation (Tyr705) by western blot, 5D8 humanization panel; format: cell-based, human; conditions: serum starved, antibody 10 μg/ml over night
Procedure: One clone from the rat immunization (5D8) was chosen for subsequent humanization. Humanization was conducted using standard CDR grafting methods. The heavy chain and light chain regions were cloned from the 5D8 hybridoma using standard molecular cloning techniques and sequenced by the Sanger method. A BLAST search was then conducted against human heavy chain and light chain variable sequences and 4 sequences from each were chosen as acceptor frameworks for humanization. These acceptor frameworks were deimmunized to remove T cell response epitopes. The heavy chain and light chain CDR1, CDR2 and CDR3 of 5D8 were cloned into the 4 different heavy chain acceptor frameworks (H1 to H4), and 4 different light chain frameworks (L1 to L4). Then all 16 different antibodies were tested for: expression in CHO-S cells (Selexis); inhibition of LIF-induced STAT3 phosphorylation; and binding affinity by Surface Plasmon Resonance (SPR). These experiments are summarized in
Inhibition of LIF-induced STAT3 phosphorylation at tyrosine 705 was determined by western blot. […] After treatment, proteins were obtained in radio-immunoprecipitation assay (RIPA) lysis buffer containing phosphatase and protease inhibitors, quantified (BCA-protein assay, Thermo Fisher Scientific) and used in western blot. […] Proteins were detected by chemiluminescence (SuperSignal Substrate, catalog #34076, Thermo Fisher Scientific). […]

[6] = tested on: KLN205 non-small cell lung cancer (NSCLC) cells; assay: Orthotopic syngeneic mouse model of non-small cell lung carcinoma (KLN205); format: in vivo; conditions: DBA/2 mice, 15 mg/kg or 30 mg/kg intraperitoneally twice a week, versus vehicle
Procedure: To determine the ability of the humanized 5D8 clone to inhibit a LIF positive cancer in vivo this antibody was tested in a mouse model of non-small cell lung carcinoma (NSCLC).
The murine non-small cell lung cancer (NSCLC) cell line KLN205 with high LIF levels was stably infected with lentivirus expressing the firefly luciferase gene for in vivo bioluminescence monitoring. To develop the mouse model, 5×10^5KLN205 non-small cell lung cancer (NSCLC) cells were orthotopically implanted into the left lung of 8-week-old immunocompetent syngeneic DBA/2 mice by intercostal puncture. […] For the bioluminescence imaging, mice received an intraperitoneal injection of 0.2 mL of 15 mg/mL D-luciferin under 1-2% inhaled isoflurane anesthesia. The bioluminescence signals were monitored using the IVIS system 2000 series (Xenogen Corp., Alameda, Calif., USA) consisting of a highly sensitive cooled CCD camera. Living Image software (Xenogen Corp.) was used to grid the imaging data and integrate the total bioluminescence signals in each boxed region. Data were analyzed using the total photon flux emission (photons/second) in the regions of interest (ROI). […] Data are presented as mean±SEM.

N.N.[Cl][Pt][Cl] [Cisplatin, cis-diamminedichloridoplatinum(II)]
Tumor Volumes at Endpoint (Day 21) (CT26 tumors [1]): 328.5 mm^3 and 1279.7 mm^3 and 689.4 mm^3 and 512.3 mm^3 and 193.9 mm^3 and 997.5 mm^3 and 257.9 mm^3 and 924.4 mm^3 and 744.2 mm^3 and 1313.6 mm^3 and 676.0 mm^3 and 953.8 mm^3

COc1cccc2c1C(=O)c1c(O)c3c(c(O)c1C2=O)C[C@@](O)(C(=O)CO)C[C@@H]3O[C@H]1C[C@H](N)[C@H](O)[C@H](C)O1 [Doxorubicin]
Tumor Volumes at Endpoint (Day 21) (CT26 tumors [1]): 408.7 mm^3 and 1207.4 mm^3 and 94.2 mm^3 and 109.1 mm^3 and 294.9 mm^3 and 780.2 mm^3 and 351.2 mm^3 and 735.2 mm^3 and 48.9 mm^3 and 463.9 mm^3 and 588.8 mm^3 and 230.3 mm^3

CC(=O)O[C@H]1C(=O)[C@@]2(C)[C@H]([C@H](OC(=O)c3ccccc3)[C@]3(O)C[C@H](OC(=O)[C@H](O)[C@@H](NC(=O)c4ccccc4)c4ccccc4)C(C)=C1C3(C)C)[C@]1(OC(C)=O)CO[C@@H]1C[C@@H]2O [Paclitaxel]
Tumor Volumes at Endpoint (Day 21) (CT26 tumors [1]): 651.8 mm^3 and 214.0 mm^3 and 461.5 mm^3 and 698.3 mm^3 and 457.7 mm^3 and 256.2 mm^3 and 592.2 mm^3 and 435.9 mm^3 and 762.1 mm^3 and 1236.2 mm^3 and 112.9 mm^3

h5D8: humanized (CDR grafted) version of rat anti-LIF antibody 5D8, H2 heavy and L2 light chain; VH SEQ ID NO: 42, VL SEQ ID NO: 46
inflammatory phenotype of tumor associated macrophages (TAMs) (CT26 tumors [2]; 15 mg/kg, 2 QW, day 25 (endpoint)): polarized towards the M1 pro-inflammatory phenotype
macrophages with an M1 phenotype (CD206 negative/MHCII positive fraction) (CT26 tumors [2]; syngeneic CT26 tumor model): increased
macrophages with an M2 phenotype (CD206 positive/MHCII negative fraction) (CT26 tumors [2]; syngeneic CT26 tumor model): decreased
CCL22 and CD206 (MRC1) expression [3]: significant decrease
tumor size by bioluminescence on day 7 (human U251 GBM cells): statistically significant reduction in tumor
Tumor Volumes at Endpoint (Day 21) (CT26 tumors [1]): 656.8 mm^3 and 1354.4 mm^3 and 1190.7 mm^3 and 1109.1 mm^3 and 906.6 mm^3 and 640.3 mm^3 and 0.0 mm^3 and 956.9 mm^3 and 318.7 mm^3 and 253.6 mm^3 and 1408.5 mm^3 and 508.3 mm^3
inhibition of STAT3 phosphorylation (Tyr 705) versus parental antibody [4]: increased inhibition
tumor volume / tumor growth (ID8 cells): reduced tumor volume; also recorded: significant reduction in tumor growth
Inhibition of LIF-induced STAT3 phosphorylation (FIG. 1, in words) [5]: high
tumor growth by bioluminescence [6]: promote tumor regression
tumor growth by bioluminescence ([6]; listed as humanized 5D8): reduced tumor growth
